Test results: PMC3726336, “Product inhibition of cellulases studied with ^14C-labeled cellulose substrates” (Biotechnology for Biofuels, 2013)
Like-named read-outs stand apart in the source and are kept apart here.

What was measured:
AtCel7A = AtCel7A (Acremonium thermophilum, UniProt A7WNT9); test: Inhibition of synergistic hydrolysis of 14C-BC by AtCel7A (supplemented with EG TrCel5A); format: biochemical; conditions: 14C-BC substrate, read-out: IC50 for cellobiose
Method: To study the cellobiose inhibition of GH7 CBHs, the synergistic hydrolysis of ^14C-BC in the presence of added cellobiose was followed (Figure 3, Additional file 1: Figures S1 and S2). Because the cellobiose inhibition of the EG TrCel5A is much weaker than that of GH7 CBHs, the inhibition of synergistic hydrolysis apparently reflects the inhibition of CBH. The strength of cellobiose inhibition was analyzed using plots of (DCB/DCB=0) versus [cellobiose], where DCB and DCB=0 represent the degree of conversion of ^14C-BC in the presence and absence of cellobiose, respectively (Figure 4, Additional file 1: Figure S3). In the case of experiments without added cellobiose, the reactions were provided with N188BG to prevent the inhibition of the CBH by the cellobiose released during hydrolysis. Experiments with no added cellobiose and without BG were also conducted. […] Therefore, the concentration of the cellobiose released during hydrolysis was added to the concentration of externally supplied cellobiose in generating the plots in Figure 4 and Additional file 1: Figure S3. For the calculation of IC50 values, the data were first fitted to hyperbolae:
where [CB] is the concentration of cellobiose; [^14CBC] is the concentration of ^14C-BC used in the experiment; and C1, C2 and H are empirical constants. Equation 5 differs from Equation 1 by the presence of constant H. H was included to improve the fit and is a constant that accounts for the background radioactivity (the degree of conversion that is independent of CBH). The degree of conversion resulting from the activity of the EG was measured in a separate experiment (Additional file 1: Figure S4) and was subtracted from the degree of conversion resulting from the synergistic hydrolysis. Thus, in the case of complete inhibition, H should have a value of zero. […] Provided with the values of C1, C2 and H, the value of IC50 was calculated as follows: […]
Using the time course data measured in the presence and absence of cellobiose, the IC50 values were first found separately for each time point (Figure 4A). […]

TrCel7A = target: T1, TrCel7A (Trichoderma reesei, UniProt P62694); test: Cellobiose inhibition of MUL hydrolysis by TrCel7A; format: biochemical; conditions: Ki for cellobiose, MUL substrate (5 μM)
T1 construct: TrCel7A was purified from the culture filtrate of Tr QM 9414 as described previously; made in house; host or cells: Trichoderma reesei QM 9414 culture filtrate (native producer)
From the text: The cellobiose inhibition of GH7 CBHs is most often studied on low-Mw model substrates. However, it has been shown that the inhibition of CBHs acting on low-Mw substrates appears to be much stronger than that on cellulose substrates. The Ki values for cellobiose inhibition of GH7 CBHs measured on low-Mw substrates are in the micromolar range [44, 51, 52], whereas those measured on cellulose are in the low- to high-millimolar range [28, 31, 32]. […] Unfortunately, the inhibition of this enzyme on cellulose has not been studied. We also studied the cellobiose inhibition of GH7 CBHs acting on MUL. The initial rates of MUL hydrolysis measured in the presence and absence of added cellobiose were first analyzed according to Equation 1, and the IC50 values were found using Equation 2. […] The inhibition of MUL hydrolysis is attributable to the binding of cellobiose to the product sites (+1/+2) of TrCel7A [52]. […]
For the inhibition of enzyme acting on the low-Mw substrate, the initial rates of the hydrolysis of MUL in the presence and absence of added cellobiose were followed. […] Reactions were stopped by the addition of NH3 (final concentration 0.1 M), and the released 4-methylumbelliferone was quantified by fluorescence using excitation and emission wavelengths of 360 nm and 450 nm, respectively.

Sequence of AtCel7A (A7WNT9 entry or part of it): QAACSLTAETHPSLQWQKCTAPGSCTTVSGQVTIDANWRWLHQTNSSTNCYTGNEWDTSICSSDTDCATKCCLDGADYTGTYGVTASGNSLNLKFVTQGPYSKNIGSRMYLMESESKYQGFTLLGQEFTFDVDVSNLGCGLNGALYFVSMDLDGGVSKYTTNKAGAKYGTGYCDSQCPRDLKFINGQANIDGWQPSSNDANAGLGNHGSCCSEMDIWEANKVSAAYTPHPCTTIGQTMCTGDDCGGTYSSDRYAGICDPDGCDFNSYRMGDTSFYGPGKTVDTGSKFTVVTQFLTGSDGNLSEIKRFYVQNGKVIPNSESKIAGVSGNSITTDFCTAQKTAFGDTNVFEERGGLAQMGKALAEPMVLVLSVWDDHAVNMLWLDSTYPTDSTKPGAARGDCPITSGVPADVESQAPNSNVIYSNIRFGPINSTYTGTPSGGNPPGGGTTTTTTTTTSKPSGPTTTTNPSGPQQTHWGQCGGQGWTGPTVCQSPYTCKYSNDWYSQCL
T1 sequence (P62694 18-513): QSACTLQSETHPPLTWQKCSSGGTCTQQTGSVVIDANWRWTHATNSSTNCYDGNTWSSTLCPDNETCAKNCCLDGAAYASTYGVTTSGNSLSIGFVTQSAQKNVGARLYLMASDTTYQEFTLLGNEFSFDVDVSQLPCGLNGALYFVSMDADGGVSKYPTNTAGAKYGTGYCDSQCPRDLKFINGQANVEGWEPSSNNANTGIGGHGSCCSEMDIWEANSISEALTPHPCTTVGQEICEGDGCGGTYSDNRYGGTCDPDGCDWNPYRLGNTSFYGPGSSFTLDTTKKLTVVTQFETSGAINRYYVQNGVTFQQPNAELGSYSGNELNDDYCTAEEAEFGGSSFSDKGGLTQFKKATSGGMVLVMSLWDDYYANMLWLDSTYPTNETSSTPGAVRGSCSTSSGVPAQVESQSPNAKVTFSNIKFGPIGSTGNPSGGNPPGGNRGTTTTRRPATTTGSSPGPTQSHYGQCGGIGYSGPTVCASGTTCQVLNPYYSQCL

**Q.** What does the source list for `O=C[C@H](O)[C@@H](O)[C@H](O[C@@H]1O[C@H](CO)[C@@H](O)[C@H](O)[C@H]1O)[C@H](O)CO` [cellobiose, Cellobiose]?
**A.** IC50 (AtCel7A; 25°C, IC50 decreased with hydrolysis time): 190 ± 100 µM; IC50 (AtCel7A; 35°C): 440 ± 100 µM; IC50 (AtCel7A; 50°C, IC50 increased with hydrolysis time): 2120 ± 1400 µM; Ki (TrCel7A; 35°C): 40 µM; Ki (TrCel7A; 50°C): 124 µM
